≈ marks a conversion by molar mass, not a printed value.
How the values were obtained:
Fibroblast = test: Cytotoxicity against human skin fibroblast cells incubated for 72 hrs by MTT assay; format: functional, cell-based
MCF7 [1] = test: Anticancer activity against human MCF7 cells incubated for 72 hrs by MTT assay; format: functional, cell-based; details: MCF7, 72 h
MGC-803 [2] = test: Anticancer activity against human MGC-803 cells incubated for 72 hrs by MTT assay; format: functional, cell-based; details: MGC-803, 72 h
HCT-15 = test: Anticancer activity against human HCT-15 cells incubated for 72 hrs by MTT assay; format: functional, cell-based; details: HCT-15, 72 h
[3] = Anticancer activity against human A875 cells assessed as inhibition of cell growth incubated for 72 hrs by MTT assay; format: functional, cell-based; details: A875, 72 h
A549 [4] = test: Anticancer activity against human A549 cells assessed as inhibition of cell growth incubated for 72 hrs by MTT assay; format: functional, cell-based; details: A549, 72 h
SW872 = test: Anticancer activity against human SW872 cells assessed as inhibition of cell growth incubated for 72 hrs by MTT assay; format: functional, cell-based; details: SW872, 72 h
A549 [5] = test: Anticancer activity against human A549 cells; format: functional; details: read-out: ED50 (the source's name)
Sarcoma-180 = test: Antitumor activity against mouse Sarcoma-180 cells xenografted in ip dosed ICR mouse assessed as tumor growth inhibition rate administered daily for 7 days relative to control; format: functional; details: time 7 day
L1210 [6] = test: Anticancer activity against mouse L1210 cells; format: functional; details: read-out: ED50 (the source's name)
[7] = Antiproliferative activity against human BGC cells assessed as inhibition of cell proliferation incubated for 20 hrs by MTT assay; format: functional, cell-based
A549 [8] = test: Antiproliferative activity against human A549 cells assessed as inhibition of cell proliferation incubated for 20 hrs by MTT assay; format: functional, cell-based; details: A549, 20 h
L02 = test: Antiproliferative activity against human L02 cells assessed as inhibition of cell proliferation incubated for 20 hrs by MTT assay; format: functional, cell-based; details: L02, 20 h
HepG2 [9] = test: Antiproliferative activity against human HepG2 cells assessed as inhibition of cell proliferation incubated for 20 hrs by MTT assay; format: functional, cell-based; details: HepG2, 20 h
MCF7 [10] = test: Antiproliferative activity against human MCF7 cells assessed as inhibition of cell proliferation incubated for 20 hrs by MTT assay; format: functional, cell-based; details: MCF7, 20 h
HeLa [11] = test: Antiproliferative activity against human HeLa cells assessed as inhibition of cell proliferation incubated for 20 hrs by MTT assay; format: functional, cell-based
SMMC-7721 [12] = test: Anticancer activity against human SMMC-7721 cells assessed as inhibition of cell proliferation incubated for 48 hrs by MTT assay; format: functional, cell-based; details: SMMC-7721, 48 h
MGC-803 [13] = test: Anticancer activity against human MGC-803 cells assessed as inhibition of cell proliferation incubated for 48 hrs by MTT assay; format: functional, cell-based; details: MGC-803, 48 h
SGC-7901 [14] = test: Anticancer activity against human SGC-7901 cells assessed as inhibition of cell proliferation incubated for 48 hrs by MTT assay; format: functional, cell-based; details: SGC-7901, 48 h
L1210 [15] = test: Anticancer activity against mouse L1210 cells assessed as reduction in cell viability for 72 hrs by MTT assay; format: functional; details: read-out: ED50 (the source's name)
U-87 MG [16] = test: Anticancer activity against human U87 cells assessed as inhibition of cell proliferation incubated for 48 hrs by MTT assay; format: functional, cell-based, U-87MG ATCC
SNU1 = test: Anticancer activity against human SNU1 cells assessed as reduction in cell viability for 72 hrs by MTT assay; format: functional, cell-based; details: SNU1, 72 h
[17] = Cytotoxicity against human L02 cells assessed as inhibition of cell growth incubated for 24 hrs by MTT assay; format: toxicity, cell-based
HepG2 [18] = test: Anticancer activity against human HepG2 cells assessed as inhibition of cell growth incubated for 24 hrs by MTT assay; format: functional, cell-based; details: HepG2, 24 h
[19] = Antitubulin activity against bovine brain tubulin polymerization preincubated with compound followed by GTP addition by turbidimetry-based spectrophotometric method; parameters: species or system Bos taurus
HeLa [20] = test: cells; details: Homo sapiens, 24 h
[21] = Anticancer activity against human A875 cells assessed as inhibition of cell growth incubated for 24 hrs by MTT assay; format: functional, cell-based; details: A875, 24 h
HepG2 [22] = test: Antiproliferative activity against human HepG2 cells assessed as reduction in cell viability incubated for 24 hrs by MTT assay; format: functional, cell-based; details: HepG2, 24 h
HeLa [23] = test: Antiproliferative activity against human HeLa cells assessed as reduction in cell viability incubated for 24 hrs by MTT assay; format: functional, cell-based
A549 [24] = test: Antiproliferative activity against human A549 cells assessed as reduction in cell viability incubated for 24 hrs by MTT assay; format: functional, cell-based; details: A549, 24 h
[25] = Cytotoxicity against human L02 cells assessed as reduction in cell viability incubated for 24 hrs by MTT assay; format: toxicity, cell-based
[26] = Cytotoxicity against African green monkey Vero cells incubated for 24 hrs by MTT assay; format: toxicity, cell-based, Chlorocebus sabaeus
B16-F10 = test: Antiproliferative activity against mouse B16-F10 cells incubated for 24 hrs by MTT assay; format: functional, cell-based; details: B16-F10, 24 h
HepG2 [27] = test: Antiproliferative activity against human HepG2 cells incubated for 24 hrs by MTT assay; format: functional, cell-based; details: HepG2, 24 h
MG-63 = test: Antiproliferative activity against human MG-63 cells incubated for 24 hrs by MTT assay; format: functional, cell-based; details: MG-63, 24 h
[28] = Cytotoxicity against human L02 incubated for 24 hrs by MTT assay; format: toxicity, cell-based; details: L02 cells
[29] = Cytotoxicity against human MCF-10A incubated for 24 hrs by MTT assay; format: toxicity, cell-based; details: MCF-10A cells
MCF7 [30] = test: Antiproliferative activity against human MCF7 cells incubated for 24 hrs by MTT assay; format: functional, cell-based; details: MCF7, 24 h
MDA-MB-231 = test: Antiproliferative activity against human MDA-MB-231 cells incubated for 24 hrs by MTT assay; format: functional, cell-based; details: MDA-MB-231, 24 h
SGC-7901 [31] = test: Anticancer activity against human SGC-7901 cells incubated for 48 hrs by MTT assay; format: functional, cell-based; details: SGC-7901, 48 h, read-out: IC50
MGC-803 [32] = test: Anticancer activity against human MGC-803 cells incubated for 48 hrs by MTT assay; format: functional, cell-based; details: MGC-803, 48 h
SMMC-7721 [33] = test: Anticancer activity against human SMMC-7721 cells incubated for 48 hrs by MTT assay; format: functional, cell-based; details: SMMC-7721, 48 h
[34] = Cytotoxicity against human L02 cells incubated for 48 hrs by MTT assay; format: toxicity, cell-based
U-87 MG [35] = test: Anticancer activity against human U87 cells incubated for 48 hrs by MTT assay; format: functional, cell-based, U-87MG ATCC

O=c1[nH]cc(F)c(=O)[nH]1 [FLUOROURACIL]
IC50 (Fibroblast): > 50 µM | IC50 (MCF7 [1]): 29.5 µM | IC50 (MGC-803 [2]): > 50 µM | IC50 (HCT-15): 8.24 µM

CC(C)=CC[C@@H](OC(=O)/C=C/c1cccc(C(F)(F)F)c1)C1=CC(=O)c2c(O)ccc(O)c2C1=O
IC50 [3]: 0.65 µM | IC50 (A549 [4]): 1.62 µM | IC50 (SW872): 0.69 µM

CCCO/N=C/c1cc(O)c2c(c1O)C(=O)C=CC2=O
EC50 (A549 [5]): > 10 µg/mL | T/C (Sarcoma-180): 229% | EC50 (L1210 [6]): 0.107 µg/mL (≈ 0.389 µM)

CC(C)=CC[C@@H](OC(=O)C(Cc1ccccc1)N1C(=O)c2ccccc2C1=O)C1=CC(=O)c2c(O)ccc(O)c2C1=O (stereo partly specified)
IC50 [7]: > 100 µM | IC50 (A549 [8]): > 100 µM | IC50 (L02): > 100 µM | IC50 (HepG2 [9]): 1.69 µM | IC50 (MCF7 [10]): 3.05 µM | IC50 (HeLa [11]): 2.92 µM

COc1cccc2c1C(=O)c1c(O)c3c(c(O)c1C2=O)C[C@@](O)(C(=O)CO)C[C@@H]3O[C@H]1C[C@H](N)[C@H](O)[C@H](C)O1.Cl [DOXORUBICIN HYDROCHLORIDE]
IC50 (SMMC-7721 [12]): 0.46 µM | EC50 (A549 [5]): 1.01 µg/mL | IC50 (MGC-803 [13]): 0.48 µM | T/C (Sarcoma-180): 315% | IC50 (SGC-7901 [14]): 0.72 µM | EC50 (L1210 [15]): 0.07 µg/mL | EC50 (L1210 [6]): 0.016 µg/mL | IC50 (U-87 MG [16]): 0.57 µM | IC50 (SNU1): 2.01 µM

CC(C)=CC[C@@H](OC(=O)Cc1ccc(Oc2ccccc2)cc1)C1=CC(=O)c2c(O)ccc(O)c2C1=O
IC50 at 24 h [17]: > 100 µM | IC50 (HepG2 [18]): 0.426 µM | IC50 [19]: 4.31 µM | IC50 (HeLa [20]): 4.31 µM | IC50 [21]: 1.24 µM

CC(C)=CC[C@@H](OC(=O)C1CC1)C1=CC(=O)c2c(O)ccc(O)c2C1=O
IC50 (HepG2 [22]): 0.759 µM | IC50 (HeLa [23]): 3.47 µM | IC50 (A549 [24]): 3.73 µM | IC50 at 24 h [25]: > 100 µM

CC(=O)O[C@@H]1[C@@H](OC(C)=O)[C@H](Sc2cc(O)c3c(c2O)C(=O)C=C([C@@H](CC=C(C)C)SC2OC[C@@H](OC(C)=O)[C@H](OC(C)=O)[C@H]2OC(C)=O)C3=O)OC[C@H]1OC(C)=O (stereo partly specified)
IC50 at 24 h [26]: 82.5 µM | IC50 (B16-F10): 4.53 µM | IC50 (HepG2 [27]): 1.22 µM | IC50 (MG-63): 1.22 µM | IC50 at 24 h [28]: 132 µM | IC50 at 24 h [29]: 78.1 µM | IC50 [19]: 4.67 µM | IC50 (MCF7 [30]): 2.37 µM | IC50 (MDA-MB-231): 10.6 µM

CC(C)=CC[C@@H](OC(=O)CCC(=O)Nc1ccc(Oc2ccccc2)cc1)C1=CC(=O)c2c(O)ccc(O)c2C1=O
IC50 (SGC-7901 [31]): 4.1 µM | IC50 (MGC-803 [32]): 4.1 µM | IC50 (SMMC-7721 [33]): 20.6 µM | IC50 at 48 h [34]: > 50 µM | IC50 (U-87 MG [35]): 3.8 µM

CO/N=C/c1cc(O)c2c(c1O)C(=O)C=CC2=O
EC50 (A549 [5]): > 10 µg/mL | T/C (Sarcoma-180): 318% | EC50 (L1210 [6]): 0.109 µg/mL (≈ 0.441 µM)
